Measurements: PubChem BioAssay AID256 (DTP/NCI, 2004)
Values joined by “and” are separate entries in the source; they are usually repeats but may differ in a detail not shown here. Identical values can stand only once. Toxic doses and inconclusive results are not listed. The calls were made as follows: active = survival T/C of 150% or more; inactive = T/C below 125% in these data.

System: CD2F1 mice, L1210 leukemia ip, survival T/C
Experiment: NCI In Vivo Anticancer Drug Screen. Data for tumor model L1210 Leukemia (intraperitoneal) in CD2F1 (CDF1) mice
Settings: higher = longer survival
How it was run: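 Tumor-bearing mice (transplanted tumor) were split into treated and vehicle control groups, and the measured endpoint of each treated group was divided by that of its vehicle controls.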

[1] = endpoint: mean survival time, dose: 100.0 mg/kg/injection, schedule: Q04DX003 (ip), vehicle: saline with Tween-80
[2] = endpoint: mean survival time, dose: 200.0 mg/kg/injection, schedule: Q04DX003 (ip), vehicle: saline with Tween-80
[3] = endpoint: mean survival time, dose: 400.0 mg/kg/injection, schedule: Q04DX003 (ip), vehicle: saline with Tween-80
[4] = endpoint: mean survival time, dose: 100.0 mg/kg/injection, schedule: Q04DX002 (ip), vehicle: saline with Tween-80
[5] = endpoint: mean survival time, dose: 200.0 mg/kg/injection, schedule: Q04DX002 (ip), vehicle: saline with Tween-80
[6] = endpoint: mean survival time, dose: 400.0 mg/kg/injection, schedule: Q04DX002 (ip), vehicle: saline with Tween-80
[7] = endpoint: mean survival time, dose: 100.0 mg/kg/injection, schedule: Q01DX009 (ip), vehicle: saline with Tween-80
[8] = endpoint: mean survival time, dose: 200.0 mg/kg/injection, schedule: Q01DX009 (ip), vehicle: saline with Tween-80
[9] = endpoint: mean survival time, dose: 400.0 mg/kg/injection, schedule: Q01DX009 (ip), vehicle: saline with Tween-80
[10] = endpoint: mean survival time, dose: 50.0 mg/kg/injection, schedule: Q01DX009 (ip), vehicle: saline with Tween-80

Measured: T/C

O=C(O)c1cc(C(=O)O)c(C(=O)O)cc1C(=O)O.[NH-]C1CCCC1.[NH-]C1CCCC1.[NH-]C1CCCC1.[NH-]C1CCCC1.[Pt+2].[Pt+2]
inactive: endpoint: mean survival time, dose: 3.12 mg/kg/injection, schedule: Q04DX003 (ip), vehicle: distilled water + Tween-80 103 % of control | endpoint: mean survival time, dose: 6.25 mg/kg/injection, schedule: Q04DX003 (ip), vehicle: distilled water + Tween-80 107 % of control | endpoint: mean survival time, dose: 12.5 mg/kg/injection, schedule: Q04DX003 (ip), vehicle: distilled water + Tween-80 108 % of control | endpoint: mean survival time, dose: 25.0 mg/kg/injection, schedule: Q04DX003 (ip), vehicle: distilled water + Tween-80 111 % of control | endpoint: mean survival time, dose: 50.0 mg/kg/injection, schedule: Q04DX003 (ip), vehicle: distilled water + Tween-80 108 % of control | endpoint: mean survival time, dose: 100.0 mg/kg/injection, schedule: Q04DX003 (ip), vehicle: distilled water + Tween-80 113 % of control | endpoint: mean survival time, dose: 200.0 mg/kg/injection, schedule: Q04DX003 (ip), vehicle: distilled water + Tween-80 124 % of control

CC(=O)NC/C(Cl)=C/Cl
inactive: [1] 99 % of control | [2] 96 % of control | [3] 88 % of control

COc1cc(CCCCl)cc(OC)c1OC
inactive: [4] 100 % of control | [5] 100 % of control | [6] 103 % of control

O=P(O)(O)OCC1OC(n2cnc3c(NCc4ccco4)ncnc32)C(O)C1O (centres undefined)
inactive: endpoint: mean survival time, dose: 12.5 mg/kg/injection, schedule: Q01DX005 (ip), vehicle: water 106 % of control | endpoint: mean survival time, dose: 25.0 mg/kg/injection, schedule: Q01DX005 (ip), vehicle: water 106 % of control | endpoint: mean survival time, dose: 50.0 mg/kg/injection, schedule: Q01DX005 (ip), vehicle: water 103 % of control | endpoint: mean survival time, dose: 100.0 mg/kg/injection, schedule: Q01DX005 (ip), vehicle: water 106 % of control

NCCc1c[nH]c2ccccc12
inactive: [7] 93 % of control | [8] 95 % of control | [9] 98 % of control

CCOC(=O)c1c(-c2ccccc2)csc1NS(=O)(=O)c1ccc(C)cc1
inactive: endpoint: mean survival time, dose: 75.0 mg/kg/injection, schedule: Q01DX001 (ip), vehicle: saline 96 % of control | endpoint: mean survival time, dose: 150.0 mg/kg/injection, schedule: Q01DX001 (ip), vehicle: saline 90 % of control | endpoint: mean survival time, dose: 300.0 mg/kg/injection, schedule: Q01DX001 (ip), vehicle: saline 101 % of control

O=C(CNC(=O)Nc1cccc([N+](=O)[O-])c1)N/N=C/C=C/c1ccccc1
inactive: [10] 88 % of control | [8] 88 % of control

COc1ccc(-c2nnc(-c3ccc(OC)c(Cl)c3)nn2)cc1Cl
inactive: [1] 93 % of control | [2] 86 % of control

O=C(Oc1cccc(O)c1)c1ccccc1
inactive: [7] 104 % of control | [1] 89 % of control | [8] 100 % of control | [2] 92 % of control | [9] 96 % of control | [3] 101 % of control

COc1ccccc1C1=CCCCCC1
inactive: [7] 107 % of control | [8] 107 % of control

CNC(=O)Nc1cccc(OS(=O)(=O)N(C)C)c1
inactive: [7] 92 % of control | [8] 95 % of control | [9] 95 % of control

CN(C)C(=S)S
inactive: endpoint: mean survival time, dose: 50.0 mg/kg/injection, schedule: Q01DX001 (ip), vehicle: carboxymethylcellulose (CMC) 93 % of control | endpoint: mean survival time, dose: 100.0 mg/kg/injection, schedule: Q01DX001 (ip), vehicle: carboxymethylcellulose (CMC) 89 % of control | [1] 94 % of control | endpoint: mean survival time, dose: 200.0 mg/kg/injection, schedule: Q01DX001 (ip), vehicle: carboxymethylcellulose (CMC) 104 % of control | [2] 105 % of control | endpoint: mean survival time, dose: 400.0 mg/kg/injection, schedule: Q01DX001 (ip), vehicle: carboxymethylcellulose (CMC) 106 % of control | [3] 100 % of control

Oc1ccc(Nc2c3ccccc3nc3c2ccc2ccccc23)cc1CN(CCCl)CCCl
inactive: endpoint: mean survival time, dose: 6.25 mg/kg/injection, schedule: Q01DX009 (ip), vehicle: saline 91 % of control

Cn1c(=O)[nH]c2c(nc(-c3ccc4c(c3)OCO4)n2C)c1=O
inactive: endpoint: mean survival time, dose: 7.8 mg/kg/injection, schedule: Q01DX005 (ip), vehicle: other 100 % of control | endpoint: mean survival time, dose: 15.6 mg/kg/injection, schedule: Q01DX005 (ip), vehicle: other 95 % of control | endpoint: mean survival time, dose: 31.3 mg/kg/injection, schedule: Q01DX005 (ip), vehicle: other 100 % of control | endpoint: mean survival time, dose: 62.5 mg/kg/injection, schedule: Q01DX005 (ip), vehicle: other 103 % of control

Fc1ccc2c(c1)CC(CBr)O2 (centres undefined)
inactive: [7] 100 % of control | [8] 105 % of control | [9] 96 % of control

C=CCNC(=S)N/N=C\c1cc(OC)c(OC)c(OC)c1
inactive: [7] 93 % of control | [8] 97 % of control | [9] 106 % of control

CC(=O)OC1CCC2(C)C(CCC3C2C(=O)C(OC(C)=O)C2(C)C3CC3OC4(CCC(C)CO4)C(C)C32)C1 (centres undefined)
inactive: [1] 87 % of control | [2] 87 % of control | [3] 89 % of control

CSc1nc(NN)n2nccc2n1
inactive: endpoint: median survival time, dose: 50.0 mg/kg/injection, schedule: Q01DX005 (ip), vehicle: saline 104 % of control | endpoint: median survival time, dose: 100.0 mg/kg/injection, schedule: Q01DX005 (ip), vehicle: saline 103 % of control

CCC1C(C)CNC1C (centres undefined)
inactive: endpoint: mean survival time, dose: 100.0 mg/kg/injection, schedule: Q01DX001 (ip), vehicle: saline with Tween-80 100 % of control

CCCCNCCC(=O)c1ccc(Cl)cc1
inactive: endpoint: mean survival time, dose: 25.0 mg/kg/injection, schedule: Q04DX003 (ip), vehicle: saline with Tween-80 98 % of control | endpoint: mean survival time, dose: 50.0 mg/kg/injection, schedule: Q04DX003 (ip), vehicle: saline with Tween-80 98 % of control

Cc1ccc2cccc(CC(=O)O)c2c1
inactive: [4] 102 % of control | [5] 98 % of control | [6] 91 % of control

Cc1n[nH]c2ccc(Br)cc2c1=O
inactive: [10] 97 % of control | [7] 91 % of control | [1] 101 % of control | [8] 101 % of control | [2] 87 % of control

O=C(CSCCN1CCCCC1)N1c2ccccc2Sc2ccccc21
inactive: endpoint: mean survival time, dose: 12.5 mg/kg/injection, schedule: Q04DX003 (ip), vehicle: saline 104 % of control | endpoint: mean survival time, dose: 25.0 mg/kg/injection, schedule: Q04DX003 (ip), vehicle: saline 101 % of control | endpoint: mean survival time, dose: 50.0 mg/kg/injection, schedule: Q04DX003 (ip), vehicle: saline 101 % of control

NNc1ncn[nH]1
inactive: endpoint: mean survival time, dose: 25.0 mg/kg/injection, schedule: Q01DX001 (ip), vehicle: saline with Tween-80 98 % of control | endpoint: mean survival time, dose: 50.0 mg/kg/injection, schedule: Q01DX001 (ip), vehicle: saline with Tween-80 101 % of control

COC(=O)C#CC(c1ccccc1)(c1ccccc1)c1ccccc1
inactive: [7] 103 % of control | [8] 101 % of control | [9] 109 % of control

O=c1ccn(C2OC(CO)C(O)C2O)c(=O)[n]1[Hg][c]1ccccc1 (centres undefined)
inactive: endpoint: median survival time, dose: 0.79 mg/kg/injection, schedule: Q01DX005 (ip), vehicle: saline 116 % of control and 111 % of control | endpoint: median survival time, dose: 1.56 mg/kg/injection, schedule: Q01DX005 (ip), vehicle: saline 100 % of control | endpoint: median survival time, dose: 3.12 mg/kg/injection, schedule: Q01DX005 (ip), vehicle: saline 100 % of control and 101 % of control and 103 % of control | endpoint: median survival time, dose: 6.25 mg/kg/injection, schedule: Q01DX005 (ip), vehicle: saline 100 % of control and 101 % of control and 107 % of control | endpoint: median survival time, dose: 12.5 mg/kg/injection, schedule: Q01DX005 (ip), vehicle: saline 101 % of control

CC(=O)OCC1OC(N2C(=O)/C(=C/c3ccc(Cl)cc3)SC2=S)C(OC(C)=O)C(OC(C)=O)C1OC(C)=O (centres undefined)
inactive: endpoint: mean survival time, dose: 3.13 mg/kg/injection, schedule: Q01DX005 (ip), vehicle: distilled water + Tween-80 102 % of control | endpoint: mean survival time, dose: 6.25 mg/kg/injection, schedule: Q01DX005 (ip), vehicle: distilled water + Tween-80 96 % of control | endpoint: mean survival time, dose: 12.5 mg/kg/injection, schedule: Q01DX005 (ip), vehicle: distilled water + Tween-80 106 % of control | endpoint: mean survival time, dose: 25.0 mg/kg/injection, schedule: Q01DX005 (ip), vehicle: distilled water + Tween-80 95 % of control
